Experimental findings from ChEMBL document CHEMBL1201862, “PubChem BioAssay data set” (2004) are described below.

Holding throughout (test): NCI-60 cell line screen, 48 h
For assay [1], the system named is 786-0.
Assay [2] relates to A549.
The test system of assay [3] is HL-60.
In assay [4] the test system is HOP-62.
Assay [5] has as its system HT-29.
The subject of assay [6] is IGROV-1.
Assay [7] deals with Malme-3M.
Assay [8] has as its system OVCAR-3.
Assay [9] has as its system OVCAR-4.
For assay [10], the system named is OVCAR-5.
The subject of assay [11] is SF-295.
In assay [12] the test system is SK-MEL-28.
Assay [13] concerns SN12C.
Assay [14] deals with SNB-19.
Assay [15] deals with U-251.
In assay [16] the test system is UACC-257.
The test system of assay [17] is UACC-62.
For assay [18], the system named is HCT-15.

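All cell lines were grown in 96-well plates and treated with compound for 48 hours. GI50 marks 50% less growth.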 Calls of active or inactive are those of the source. No stated cut-off is given here; in the data, active = GI50 up to about 1.1 µM and inactive = higher.

For the molecule `CCCCN(CCCC)C(=O)/C(CC(=O)c1cccc2ccccc12)=N\NC(=O)c1cc2ccccc2cc1O`, the GI50 in assay [1] is 20.3 µM (inactive); in assay [2], 21.1 µM (inactive); in assay [3] it was 3.2 µM (inactive); in assay [4], 20 µM (inactive); in assay [5] it was 23.8 µM (inactive); in [6], 15.3 µM (inactive). Also, the GI50 in [7] is 16.9 µM (inactive); in assay [8], 14.4 µM (inactive); in assay [9], 25.6 µM (inactive); in [10], 30.3 µM (inactive); in [11], 18.3 µM (inactive); in assay [12] it was 26 µM (inactive). The GI50 is 18.5 µM (inactive) in [13]; 26.1 µM (inactive) in assay [14]; 19.3 µM (inactive) in [15]; 21.1 µM (inactive) in assay [16]; 6.85 µM (inactive) in assay [17].

For `O=C1CCCCCCCCCCC(=O)C2CCOCCOCCOCCC1Cc1cccc(n1)C2`, the GI50 is > 100 µM (inactive) in assay [1]; > 100 µM (inactive) in [2]; 83.2 µM in assay [18]; > 100 µM (inactive) in assay [4]; > 100 µM (inactive) in assay [5]; 90.4 µM (inactive) in assay [6]. The GI50 in assay [7] is > 100 µM (inactive); in [8] it was 40.6 µM (inactive); in assay [9], 51.5 µM (inactive); in assay [11], 76.7 µM (inactive); in assay [12], > 100 µM (inactive); in [13] it was 64.9 µM (inactive). In addition, the GI50 in assay [14], in [15], in [16] and in assay [17] was > 100 µM (inactive) in each case.

With `CC(C)(C)[Si](C)(C)O/N=C\c1cccc(O[Si](C)(C)C(C)(C)C)c1`, the GI50 in [1] was 19.2 µM (inactive); in assay [2], 17.8 µM (inactive); in assay [18], 19.2 µM; in [3], 18.3 µM (inactive); in assay [4], 22.8 µM (inactive); in assay [5], 16.5 µM (inactive). Further, the GI50 was 18.6 µM (inactive) in assay [6]; 42.4 µM (inactive) in [7]; 16.2 µM (inactive) in assay [8]; 16.1 µM (inactive) in assay [9]; 20.1 µM (inactive) in assay [10]; 18 µM (inactive) in assay [11]. Further, the GI50 in assay [13] was 19.9 µM (inactive); in [14], 20.7 µM (inactive); in assay [15] it was 17.5 µM (inactive); in assay [16], 21.9 µM (inactive); in assay [17] it was 16.7 µM (inactive).

Consider `COC(=O)C(CC(=O)c1c[nH]c2ccccc12)c1c[nH]c2ccccc12` (stereo not drawn), for which the GI50 in [1] is 23.9 µM (inactive); in assay [2] it was 21.2 µM (inactive); in [18], 16.4 µM; in assay [3], 20.1 µM (inactive); in assay [4] it was 21.5 µM (inactive); in assay [5], 16.9 µM (inactive). Further, the GI50 was > 10 µM (inactive) in [6]; 19.1 µM (inactive) in assay [7]; > 10 µM (inactive) in assay [8]; 17.1 µM (inactive) in [9]; 22.2 µM (inactive) in [10]; > 10 µM (inactive) in assay [11]. Besides, the GI50 is 19.5 µM (inactive) in assay [12], 20.8 µM (inactive) in [15], 15.4 µM (inactive) in [16] and > 10 µM (inactive) in assay [17].

Consider `Cc1ccccc1C(C#N)C(=O)C(=O)Nc1cccc(Cl)c1` (stereo not drawn), for which the GI50 in assay [1] is 37.8 µM (inactive); in assay [2] it was > 100 µM (inactive); in [18], above 100 µM; in [3], 91.4 µM (inactive); in assay [4] it was > 100 µM (inactive); in [5] it was > 100 µM (inactive). Also, the GI50 in [6], in assay [7], in [8], in assay [10], in assay [11] and in [12] was > 100 µM (inactive) each time. Also, the GI50 in [13], in [14], in assay [15], in assay [16] and in [17] was > 100 µM (inactive) throughout.
